The pIC50 is −log10 of the IC50, conventionally taken in molar units. Broadly, the inhibition is the change of the read-out against control, counted positive when it falls.

Structures are written as SMILES. pIC50: −log10 of the molar value. A value given as a limit tells only on which side of the number the result lay.

The target in one assay is T1, glucagon receptor (GCGR) (Homo sapiens, UniProt P47871).
T1 construct: expressed in transfected cells; host or cells: CHO-K1
In words: Glucagon cAMP inhibition assay (Cisbio cAMP Dynamic 2 HTRF). Type of assay: cell-based. The following applies: GCGR overexpressed CHO-K1 cells or human primary hepatocytes (not specified); glucagon at EC50. Summed up:
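GCGR-overexpressing CHO-K1 cells or human primary hepatocytes in HBSS with 0.1% BSA and 800 nM IBMX, pre-incubated 30 min with compound (1% DMSO final), then stimulated 30 min at room temperature with glucagon at its EC50. cAMP measured by HTRF after 60 min lysis; IC50 from non-linear regression.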

Another assay concerns the target GCGR (Homo sapiens, UniProt P47871). In words: I125-glucagon binding assay (competition, GCGR membrane fractions). The following applies: for pIC50: competition with I125-glucagon 0.0625 nM, membrane fractions from GCGR overexpressed CHO-K1 cells. Details: expressed in transfected cells; host or cells: CHO-K1. Summed up:
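Membranes from CHO-K1 cells overexpressing GCGR (7.5 µg/well) were preincubated 5 min with serially diluted compound in 50 mM Tris pH 7.4, 0.5% BSA. I125-glucagon was then added at 0.0625 nM final and incubated 30 min at 25 °C. After filtration, bound radioactivity was counted and IC50 derived by non-linear regression.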

Sequence of GCGR (P47871 26-477, species assumed): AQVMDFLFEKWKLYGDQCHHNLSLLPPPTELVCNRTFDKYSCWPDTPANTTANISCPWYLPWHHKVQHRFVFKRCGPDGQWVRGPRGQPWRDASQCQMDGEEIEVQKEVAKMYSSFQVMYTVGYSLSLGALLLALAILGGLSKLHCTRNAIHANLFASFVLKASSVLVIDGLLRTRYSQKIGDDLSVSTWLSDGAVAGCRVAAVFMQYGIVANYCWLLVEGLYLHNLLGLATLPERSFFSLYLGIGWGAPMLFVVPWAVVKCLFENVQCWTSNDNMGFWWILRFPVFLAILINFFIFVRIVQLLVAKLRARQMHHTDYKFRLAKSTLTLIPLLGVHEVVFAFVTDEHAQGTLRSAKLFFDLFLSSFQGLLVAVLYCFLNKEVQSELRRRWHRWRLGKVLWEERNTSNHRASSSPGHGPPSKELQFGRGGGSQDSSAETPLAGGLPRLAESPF
T1 sequence (P47871 26-477, species assumed): as above

On to `CCCC[C@@H](Nc1ccc(C(=O)NCCC(=O)O)cc1)c1ccc(-c2nc3ccccc3o2)cc1` [Compound 4-10], for which the results for the pIC50 at glucagon receptor (GCGR) and on GCGR were 5.82 and 6.83, respectively.
`CCOC(=O)CCNC(=O)c1ccc(N[C@@H](c2ccc(-c3nc4ccccc4o3)cc2)C2CCCC2)cc1` [Compound 4-11, ethyl (R)-3-(4-(((4-(benzo[d]oxazol-2-yl)phenyl)(cyclopentyl)methyl)amino)benzamido)propanoate]: the pIC50 at glucagon receptor (GCGR) was 6.63; on GCGR, 6.12.
Turning to `O=C(O)CCNC(=O)c1ccc(N[C@@H](c2ccc(-c3nc4ccccc4o3)cc2)C2CCCC2)cc1` [Compound 4-12, (R)-3-(4-(((4-(benzo[d]oxazol-2-yl)phenyl)(cyclopentyl)methyl)amino)benzamido)propanoic acid], the negative logarithm of the IC50 (pIC50) was 6.12 against glucagon receptor (GCGR) and 7.62 on GCGR.
For `CCOC(=O)CCNC(=O)c1ccc(N[C@H](CC(C)C)c2ccc(-c3nc4ccccc4o3)cc2)cc1` [Compound 4-13, ethyl (R)-3-(4-((1-(4-(benzo[d]oxazol-2-yl)phenyl)-3-methylbutyl)amino)benzamido)propanoate], in that order: 6.44 and 4.50.
Regarding `CC(C)C[C@@H](Nc1ccc(C(=O)NCCC(=O)O)cc1)c1ccc(-c2nc3ccccc3o2)cc1` [Compound 4-14, (R)-3-(4-((1-(4-(benzo[d]oxazol-2-yl)phenyl)-3-methylbutyl)amino)benzamido)propanoic acid], the pIC50 against glucagon receptor (GCGR) is 6.04; at GCGR, 6.95.
With `CCCC[C@H](Nc1ccc(C(=O)NCCC(=O)OCC)cc1)c1ccc(-c2nc3ccccc3o2)cc1` [Compound 4-15, ethyl (S)-3-(4-((1-(4-(benzo[d]oxazol-2-yl)phenyl)pentyl)amino)benzamido)propanoate], the negative-log IC50 (pIC50) is 7.37 on glucagon receptor (GCGR) and 6.46 at GCGR.
For the molecule `CCCC[C@H](Nc1ccc(C(=O)NCCC(=O)O)cc1)c1ccc(-c2nc3ccccc3o2)cc1` [Compound 4-16, (S)-3-(4-((1-(4-(benzo[d]oxazol-2-yl)phenyl)pentyl)amino)benzamido)propanoic acid], the results for the pIC50 against glucagon receptor (GCGR) and at GCGR were 6.11 and 7.44, respectively.
Regarding `CCOC(=O)CCNC(=O)c1ccc(N[C@@H](CC(C)C)c2ccc(-c3nc4ccccc4o3)cc2)cc1` [Compound 4-17, ethyl (S)-3-(4-((1-(4-(benzo[d]oxazol-2-yl)phenyl)-3-methylbutyl)amino)benzamido)propanoate], the pIC50 is 7.02 on glucagon receptor (GCGR) and 6.13 at GCGR.
For `CC(C)C[C@H](Nc1ccc(C(=O)NCCC(=O)O)cc1)c1ccc(-c2nc3ccccc3o2)cc1` [Compound 4-18], the negative logarithm of the IC50 (pIC50) at glucagon receptor (GCGR) is 5.76; at GCGR, 7.08.
In the same order, the values of `CCOC(=O)CCNC(=O)c1ccc(N[C@H](c2ccc(-c3nc4ccccc4o3)cc2)C(C)CC)cc1` (stereo partly drawn) [Compound 4-19, Ethyl 3-(4-(((1S)-1-(4-(benzo[d]oxazol-2-yl)phenyl)-2-methylbutyl)amino)benzamido)propanoate] are 7.28 and 6.35.
For `CCC(C)[C@H](Nc1ccc(C(=O)NCCC(=O)O)cc1)c1ccc(-c2nc3ccccc3o2)cc1` (stereo partly drawn) [Compound 4-20, 3-(4-(((1S)-1-(4-(benzo[d]oxazol-2-yl)phenyl)-2-methylbutyl)amino)benzamido)propanoic acid], in that order: 6.01 and 7.77.
As to `CCOC(=O)CCNC(=O)c1ccc(N[C@@H](c2ccc(-c3nc4ccccc4o3)cc2)C(C)CC)cc1` (stereo partly drawn) [Compound 4-21, ethyl 3-(4-(((1R)-1-(4-(benzo[d]oxazol-2-yl)phenyl)-2-methylbutyl)amino)benzamido)propanoate], the pIC50 was 6.62 against glucagon receptor (GCGR) and 6.03 at GCGR.
Take `CCC(C)[C@@H](Nc1ccc(C(=O)NCCC(=O)O)cc1)c1ccc(-c2nc3ccccc3o2)cc1` (stereo partly drawn) [Compound 4-22, 3-(4-(((1R)-1-(4-(benzo[d]oxazol-2-yl)phenyl)-2-methylbutyl)amino)benzamido)propanoic acid]: the figures for the pIC50 at glucagon receptor (GCGR) and on GCGR were 6.05 and 7.22, respectively.
In the same order, the values of `CCOC(=O)CCNC(=O)c1ccc(N[C@H](c2ccc(-c3nc4ccccc4o3)cc2)C2CCCC2)cc1` [Compound 4-23, ethyl (S)-3-(4-(((4-(benzo[d]oxazol-2-yl)phenyl)(cyclopentyl)methyl)amino)benzamido)propanoate] are 7.19 and 6.51.
For `O=C(O)CCNC(=O)c1ccc(N[C@H](c2ccc(-c3nc4ccccc4o3)cc2)C2CCCC2)cc1` [Compound 4-24, (S)-3-(4-(((4-(benzo[d]oxazol-2-yl)phenyl)(cyclopentyl)methyl)amino)benzamido)propanoic acid], in that order: 6.06 and 7.02.
Regarding `CCOC(=O)CCNC(=O)c1ccc(N[C@H](c2ccc(-c3nc4ccccc4s3)cc2)C(C)C)cc1` [Compound 4-25, ethyl (S)-3-(4-((1-(4-(benzo[d]thiazol-2-yl)phenyl)-2-methylpropyl)amino)benzamido)propanoate], the pIC50 on glucagon receptor (GCGR) was 7.52; at GCGR it was 6.73.
For `CC(C)[C@H](Nc1ccc(C(=O)NCCC(=O)O)cc1)c1ccc(-c2nc3ccccc3s2)cc1` [Compound 4-26, (S)-3-(4-((1-(4-(benzo[d]thiazol-2-yl)phenyl)-2-methylpropyl)amino)benzamido)propanoic acid], in that order: 5.99 and 7.37.
In the same order, the values of `CCOC(=O)CCNC(=O)c1ccc(N[C@H](c2ccc(-c3nc4ccccc4s3)cc2)C(C)C)nc1` [Compound 4-27, ethyl (S)-3-(6-((1-(4-(benzo[d]thiazol-2-yl)phenyl)-2-methylpropyl)amino)nicotinamido)propanoate] are 7.37 and 6.90.
For `CCOC(=O)CCNC(=O)c1ccc(N[C@H](c2ccc(-c3nc4ccccc4o3)cc2)C(C)C)nc1` [Compound 4-29, ethyl (S)-3-(6-((1-(4-(benzo[d]oxazol-2-methylpropyl)amino)nicotinamido propanoate], in that order: 7.27 and 6.55.
Turning to `CCOC(=O)CCNC(=O)c1ccc(N[C@@H](CC(C)C)c2ccc(-c3nc(-c4ccccc4)no3)cc2)cc1` [Compound 5-1, ethyl (S)-3-(4-((3-methyl-1-(4-(3-phenyl-1,2,4-oxadiazol-5-yl)phenyl)butyl)amino)benzamido)propanoate], the negative-log IC50 (pIC50) on glucagon receptor (GCGR) was 7.28; at GCGR it was 6.20.
On to `CC(C)C[C@H](Nc1ccc(C(=O)NCCC(=O)O)cc1)c1ccc(-c2nc(-c3ccccc3)no2)cc1` [Compound 5-2, (S)-3-(4-((3-methyl-1-(4-(3-phenyl-1,2,4-oxadiazol-5-yl)phenyl)butyl)amino)benzamido)propanoic acid], for which the pIC50 on glucagon receptor (GCGR) is 6.68; on GCGR, 7.70.
For `CCOC(=O)CCNC(=O)c1ccc(N[C@H](c2ccc(-c3nc(-c4ccccc4)no3)cc2)C(C)C)cc1` [Compound 5-3, ethyl (S)-3-(4-((2-methyl-1-(4-(3-phenyl-1,2,4-oxadiazol-5-yl)phenyl)propyl)amino)benzamido)propanoate], in that order: 7.15 and 5.76.
For `CC(C)[C@H](Nc1ccc(C(=O)NCCC(=O)O)cc1)c1ccc(-c2nc(-c3ccccc3)no2)cc1` [Compound 5-4, (S)-3-(4-((2-methyl-1-(4-(3-phenyl-1,2,4-oxadiazol-5-yl)phenyl)propyl)amino)benzamido)propanoic acid], in that order: 6.53 and 7.47.
Take `CCOC(=O)CCNC(=O)c1ccc(N[C@H](c2ccc(-c3nc(-c4ccccc4)no3)cc2)C(C)CC)cc1` (stereo partly drawn) [Compound 5-5, ethyl 3-(4-(((1S)-2-methyl-1-(4-(3-phenyl-1,2,4-oxadiazol-5-yl)phenyl)butyl)amino)benzamido)propanoate]: the figures for the pIC50 against glucagon receptor (GCGR) and at GCGR were 7.34 and 6.06, respectively.
For `CCC(C)[C@H](Nc1ccc(C(=O)NCCC(=O)O)cc1)c1ccc(-c2nc(-c3ccccc3)no2)cc1` (stereo partly drawn) [Compound 5-6, 3-(4-(((1S)-2-methyl-1-(4-(3-phenyl-1,2,4-oxadiazol-5-yl)phenyl)butyl)amino)benzamido)propanoic acid], in that order: 6.62 and 7.88.
For `CCCC[C@H](Nc1ccc(C(=O)NCCC(=O)OCC)cc1)c1ccc(-c2nc(-c3ccccc3)no2)cc1` [Compound 5-7, ethyl (S)-3-(4-((1-(4-(3-phenyl-1,2,4-oxadiazol-5-yl)phenyl)pentyl)amino)benzamido)propanoate], the pIC50 at glucagon receptor (GCGR) is 7.23; on GCGR it was 5.99. Further, the inhibition at 30 µM at GCGR (compound at 30 μM, read-out: percentage of inhibition (number in parenthesis in IC50 binding column)) stood at 32%.
With `CCCC[C@H](Nc1ccc(C(=O)NCCC(=O)O)cc1)c1ccc(-c2nc(-c3ccccc3)no2)cc1` [Compound 5-8, (S)-3-(4-((1-(4-(3-phenyl-1,2,4-oxadiazol-5-yl)phenyl)pentyl)amino)benzamido)propanoic acid], the figures for the negative-log IC50 (pIC50) on glucagon receptor (GCGR) and on GCGR were 6.69 and 7.85, respectively.
On to `CCOC(=O)CCNC(=O)c1ccc(OC(c2ccc(-c3nc4ccccc4s3)cc2)C(C)C)cc1` (stereo not drawn) [Compound 6-1, Ethyl 3-(4-(1-(4-(benzo[d]thiazol-2-yl)phenyl)-2-methylpropoxy)benzamido)propanoate], for which the negative-log IC50 (pIC50) is 7.07 against glucagon receptor (GCGR) and under 4.52 at GCGR.

Source of the values: US10882837B2, “Amide compounds and use thereof” (ALPHALA CO., LTD., priority 2017, dated 2021).
